Reference: patent US9540356B2 (priority 2012, dated 2017)

Key:
HeLa cells [1] = test: cells; format: cell-based; details: Homo sapiens
HeLa cells [2] = format: cell-based, human
[3] = system: retrograde transport of Shiga toxin subunit B (StxB); format: cell-based

| Structure (SMILES) | IC50 (HeLa cells [1]) [µM] | R (Stx), protective index (HeLa cells [2]) | retrograde transport, % control [3] [%] |
| --- | --- | --- | --- |
| COCCOc1ccccc1N1C(=O)c2ccccc2N(C)C1c1ccc(C)s1 (stereo not shown) [Compound 68, 3-(2-(2-Methoxyethoxy)phenyl)-1-methyl-2-(5-methylthiophen-2-yl)-2,3-dihydroquinazolin-4(1H)-one] | 4.2 |  |  |
| CSc1ccccc1N1C(=O)c2ccccc2N(C)C1c1ccc(C)s1 (stereo not shown) [Compound 57, 1-Methyl-3-(2-(methylthio)phenyl)-2-(5-methylthiophen-2-yl)-2,3-dihydroquinazolin-4(1H)-one] | 3.8 | 25 |  |
| Cc1ccc(C2N(C)c3ccccc3C(=O)N2c2ccccc2-c2ccccc2)s1 (stereo not shown) [Compound 59, 3-([1,1′-Biphenyl]-2-yl)-1-methyl-2-(5-methylthiophen-2-yl)-2,3-dihydroquinazolin-4(1H)-one] | 3.7 | 27 |  |
| O=C1c2ccccc2NC(c2ccc(-c3cccs3)s2)N1c1ccccc1 (stereo not shown) [Compound 18, 2-([2,2′-Bithiophen]-5-yl)-3-phenyl-2,3-dihydroquinazolin-4(1H)-one] |  | 50 | 17.1 |
| CN1c2ccccc2C(=O)N(c2ccccc2)C1c1ccc(-c2cccs2)s1 (stereo not shown) [Compound 39, 2-([2,2′-Bithiophen]-5-yl)-1-methyl-3-phenyl-2,3-dihydroquinazolin-4(1H)-one] |  | 36 | 6.2 |
| CN1c2ccccc2C(=O)N(c2ccccc2)C1c1ccc(-c2ccccn2)s1 (stereo not shown) [Compound 37, 1-Methyl-3-phenyl-2-(5-(pyridin-2-yl)thiophen-2-yl)-2,3-dihydroquinazolin-4(1H)-one] |  | 111 | 10.3 |
| CSc1ccc(C2N(C)c3ccccc3C(=O)N2c2ccccc2)s1 (stereo not shown) [Compound 38, 1-Methyl-2-(5-(methylthio)thiophen-2-yl)-3-phenyl-2,3-dihydroquinazolin-4(1H)-one] |  | 60 | 18.2 |
| O=C1c2ccccc2NC(c2ccc(-c3ccco3)s2)N1c1ccccc1 (stereo not shown) [Compound 20, 2-(5-(Furan-2-yl)thiophen-2-yl)-3-phenyl-2,3-dihydroquinazolin-4(1H)-one] |  | 41 | 6.5 |
| Cc1nc(-c2ccc(C3N(C)c4ccccc4C(=O)N3c3ccccc3C(=O)c3ccccc3)s2)cs1 (stereo not shown) [Compound 65, 3-(2-Benzoylphenyl)-1-methyl-2-(5-(2-methylthiazol-4-yl)thiophen-2-yl)-2,3-dihydroquinazolin-4(1H)-one] | 1 to 3 |  |  |
| CN1c2ccccc2C(=O)N(c2ccccc2)C1c1ccc(-c2ccccc2)s1 (stereo not shown) [Compound 36, 1-Methyl-3-phenyl-2-(5-phenylthiophen-2-yl)-2,3-dihydroquinazolin-4(1H)-one] |  | 29 | 7.1 |
| Cc1ccc(C2N(C)c3ccccc3C(=O)N2c2ccccc2F)s1 (stereo not shown) [Compound 58, 3-(2-Fluorophenyl)-1-methyl-2-(5-methylthiophen-2-yl)-2,3-dihydroquinazolin-4(1H)-one] | 5.5 | 25 |  |
| Cc1nc(-c2ccc(C3Nc4ccccc4C(=O)N3c3ccccc3)s2)cs1 (stereo not shown) [Compound 21, 2-(5-(2-Methylthiazol-4-yl)thiophen-2-yl)-3-phenyl-2,3-dihydroquinazolin-4(1H)-one] |  | 109 | 0.0 |
| CCc1ccc(C2Nc3ccccc3C(=O)N2c2ccccc2)s1 (stereo not shown) [Compound 7, 2-(5-Ethylthiophen-2-yl)-3-phenyl-2,3-dihydroquinazolin-4(1H)-one] |  | 120 | 13.5 |
| O=C1c2ccccc2NC(c2ccc(-c3ccccc3)s2)N1c1ccccc1 (stereo not shown) [Compound 13, 3-Phenyl-2-(5-phenylthiophen-2-yl)-2,3-dihydroquinazolin-4(1H)-one] |  | 153 | 13.1 |
| Cc1ccc(C2N(C)c3ccccc3C(=O)N2c2ccccc2I)s1 (stereo not shown) [Compound 55, 3-(2-Iodophenyl)-1-methyl-2-(5-methylthiophen-2-yl)-2,3-dihydroquinazolin-4(1H)-one] | 5.4 | 25 |  |
| CN1c2ccccc2C(=O)N(c2ccccc2)C1c1ccc(-c2ccoc2)s1 (stereo not shown) [Compound 47, 2-(5-(Furan-3-yl)thiophen-2-yl)-1-methyl-3-phenyl-2,3-dihydroquinazolin-4(1H)-one] |  | 49 |  |
| Cc1ccc(C2N(C)c3ccccc3C(=O)N2c2ccccc2C(=O)O)s1 (stereo not shown) [Compound 69, 2-(1-Methyl-2-(5-methylthiophen-2-yl)-4-oxo-1,4-dihydroquinazolin-3(2H)-yl)benzoic acid] | 11.2 |  |  |
| Cc1ccc(C2N(C)c3ccccc3C(=O)N2c2ccccc2)s1 (stereo not shown) [Compound 35, 1-Methyl-2-(5-methylthiophen-2-yl)-3-phenyl-2,3-dihydroquinazolin-4(1H)-one] |  | 80 |  |
| CN1c2ccccc2C(=O)N(c2ccccc2)C1c1ccc(CN=[N+]=[N-])s1 (stereo not shown) [Compound 62, 2-(5-(Azidomethyl)thiophen-2-yl)-1-methyl-3-phenyl-2,3-dihydroquinazolin-4(1H)-one] | 12 |  |  |

| Structure (SMILES) | IC50 (HeLa cells [1]) [µM] | R (Stx), protective index (HeLa cells [2]) | retrograde transport, % control [3] [%] |
| --- | --- | --- | --- |
| C=CCOC(=O)c1ccccc1N1C(=O)c2ccccc2N(C)C1c1ccc(C)s1 (stereo not shown) [Compound 67, Allyl 2-(1-methyl-2-(5-methylthiophen-2-yl)-4-oxo-1,4-dihydroquinazolin-3(2H)-yl)benzoate] | 13 |  |  |
| Cc1ccc(C2Nc3ccccc3C(=O)N2c2ccccc2Cl)s1 (stereo not shown) [Compound 32, 3-(2-Chlorophenyl)-2-(5-methylthiophen-2-yl)-2,3-dihydroquinazolin-4(1H)-one] |  | 68 |  |
| Cc1ccc(C2Nc3ccc(F)cc3C(=O)N2c2ccccc2)s1 (stereo not shown) [Compound 25, 6-Fluoro-2-(5-methylthiophen-2-yl)-3-phenyl-2,3-dihydroquinazolin-4(1H)-one] |  | 133 |  |
| O=C1c2ccccc2NC(c2ccc(Br)s2)N1c1ccccc1 (stereo not shown) [Compound 9, 2-(5-Bromothiophen-2-yl)-3-phenyl-2,3-dihydroquinazolin-4(1H)-one] | 13.7 | 27.9 |  |
| CN1c2ccccc2C(=O)N(c2ccccc2)C1c1ccc(Sc2ccccc2)s1 (stereo not shown) [Compound 44, 1-Methyl-3-phenyl-2-(5-(phenylthio)thiophen-2-yl)-2,3-dihydroquinazolin-4(1H)-one] |  | 71 |  |
| Cc1nc(-c2ccc(C3N(C)c4ccc(F)cc4C(=O)N3c3ccccc3C(=O)c3ccccc3)s2)cs1 (stereo not shown) [Compound 66] | 1 |  |  |
| Cc1ccc(C2N(C)c3ccccc3C(=O)N2c2ccccc2Cl)s1 (stereo not shown) [Compound 54, 3-(2-Chlorophenyl)-1-methyl-2-(5-methylthiophen-2-yl)-2,3-dihydroquinazolin-4(1H)-one] | 8.2 | 27 |  |
| Cc1nc(-c2ccc(C3Nc4ccc(F)cc4C(=O)N3c3ccccc3)s2)cs1 (stereo not shown) [Compound 34, 6-Fluoro-2-(5-(2-methylthiazol-4-yl)thiophen-2-yl)-3-phenyl-2,3-dihydroquinazolin-4(1H)-one] |  | 295 |  |
| CSc1ccccc1N1C(=O)c2ccccc2NC1c1ccc(C)s1 (stereo not shown) [Compound 31, 3-(2-(Methylthio)phenyl)-2-(5-methylthiophen-2-yl)-2,3-dihydroquinazolin-4(1H)-one] |  | 99 |  |
| CSc1ccc(C2Nc3ccccc3C(=O)N2c2ccccc2)s1 (stereo not shown) [Compound 17, 2-(5-(Methylthio)thiophen-2-yl)-3-phenyl-2,3-dihydroquinazolin-4(1H)-one] |  | 43 | 22.8 |
| CN1c2ccc(F)cc2C(=O)N(c2ccccc2)C1c1ccc(-c2csc(CN=[N+]=[N-])n2)s1 (stereo not shown) [Compound 64, 2-(5-(2-(Azidomethyl)thiazol-4-yl)thiophen-2-yl)-6-fluoro-1-methyl-3-phenyl-2,3-dihydroquinazolin-4(1H)-one] | < 3 |  |  |
| Cc1ccc(C2N(C)c3ccccc3C(=O)N2c2ccccc2S(=O)(=O)c2ccccc2)s1 (stereo not shown) [Compound 60, 1-Methyl-2-(5-methylthiophen-2-yl)-3-(2-(phenylsulfonyl)phenyl)-2,3-dihydroquinazolin-4(1H)-one] |  | 320 |  |
| CN1c2ccccc2C(=O)N(c2ccccc2)C1c1ccc(-c2csc(CN=[N+]=[N-])n2)s1 (stereo not shown) [Compound 63, 2-(5-(2-(Azidomethyl)thiazol-4-yl)thiophen-2-yl)-1-methyl-3-phenyl-2,3-dihydroquinazolin-4(1H)-one] | 3 to 5 |  |  |
| O=C1c2ccccc2NC(c2ccc(-c3ccccn3)s2)N1c1ccccc1 (stereo not shown) [Compound 19, 3-Phenyl-2-(5-(pyridin-2-yl)thiophen-2-yl)-2,3-dihydroquinazolin-4(1H)-one] |  | 46 | 10.7 |
| CN1c2ccccc2C(=O)N(c2ccccc2)C1c1ccc(Br)s1 (stereo not shown) [Compound 43, 2-(5-Bromothiophen-2-yl)-1-methyl-3-phenyl-2,3-dihydroquinazolin-4(1H)-one] |  | 40 |  |
| CCc1ccc(C2N(C)c3ccccc3C(=O)N2c2ccccc2)s1 (stereo not shown) [Compound 41, 2-(5-Ethylthiophen-2-yl)-1-methyl-3-phenyl-2,3-dihydroquinazolin-4(1H)-one] |  | 173 | 0.0 |
| COc1ccccc1N1C(=O)c2ccccc2N(C)C1c1ccc(C)s1 (stereo not shown) [Compound 56, 3-(2-Methoxyphenyl)-1-methyl-2-(5-methylthiophen-2-yl)-2,3-dihydroquinazolin-4(1H)-one] | 5.4 | 26 |  |
| Cc1nc(-c2ccc(C3N(C)c4ccccc4C(=O)N3c3ccccc3)s2)cs1 (stereo not shown) [Compound 42, 1-Methyl-2-(5-(2-methylthiazol-4-yl)thiophen-2-yl)-3-phenyl-2,3-dihydroquinazolin-4(1H)-one] |  | 85 | 0.0 |
| Cc1nc(-c2ccc(C3N(C)c4ccc(F)cc4C(=O)N3c3ccccc3)s2)cs1 (stereo not shown) [Compound 61, 6-Fluoro-1-methyl-2-(5-(2-methylthiazol-4-yl)thiophen-2-yl)-3-phenyl-2,3-dihydroquinazolin-4(1H)-one] |  | 40 |  |
